pIC50: −log10 of the molar value. Like-named read-outs stand apart in the source and are kept apart here.
Experiments:
[1] = biological target: KRAS-G12V/RAF1 (Homo sapiens (Human), UniProt P01116, G12V); experiment: KRAS/RAF1 binding inhibition assay (AlphaScreen)
How it was run: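 IC50 comes from variable-slope nonlinear fits of % inhibition (relative to DMSO) against inhibitor concentration. The AlphaScreen signal tracks the interaction of GppNHp-bound KRAS G12V with the RAF1 RBD after 60 min at 4° C with compound in 2% DMSO final.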

[2] = biological target: KRAS G12V (Homo sapiens (Human), UniProt P01116, G12V); experiment: KRAS G12V degradation in SW620 cells (Western blot, DC50); assay type: cell-based; settings: 24 hours
KRAS G12V, sequence (P01116-2 other isoform, or with tags, fused parts or gaps G12V): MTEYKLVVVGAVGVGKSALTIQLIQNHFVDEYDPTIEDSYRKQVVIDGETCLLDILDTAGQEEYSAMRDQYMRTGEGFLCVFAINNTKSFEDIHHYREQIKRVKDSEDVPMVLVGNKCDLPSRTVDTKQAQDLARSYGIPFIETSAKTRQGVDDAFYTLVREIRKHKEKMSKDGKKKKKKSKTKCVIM
How it was run: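 KRAS levels were quantified by fluorescent Western blot as percent of the DMSO control after 24 h of compound exposure at 37° C in homozygous KRAS G12V SW620 cells. A four-parameter variable-slope fit of the dose-response gave the half-maximal degradation concentration.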

[3] = system: SW620 cells; experiment: 3D cell growth inhibition of SW620 cells carrying endogenous KRAS G12V mutation (CellTiter-Glo 3D, GI50); assay type: cell-based; settings: Homo sapiens, SW-620, 144 h, read-out: SW620 3D cell growth GI50
How it was run: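 […], compound exposure lasted 6 days at 37° C, added the day after plating from DMSO stocks over a concentration range. Cells: SW620, KRAS G12V, 3D culture.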

KRAS-G12V/RAF1, sequence (P01116-2 other isoform, or with tags, fused parts or gaps G12V): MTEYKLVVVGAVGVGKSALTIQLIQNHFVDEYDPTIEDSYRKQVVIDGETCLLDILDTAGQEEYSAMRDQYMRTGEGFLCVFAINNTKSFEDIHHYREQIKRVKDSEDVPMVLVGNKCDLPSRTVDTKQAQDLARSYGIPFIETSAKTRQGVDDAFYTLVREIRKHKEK

SMILES | pIC50 [1] | DC50 [2] [nM] | GI50 ([3]; SW620 cells, 6 days) [nM] | GI50 [3] [nM]
CCc1c(F)ccc2cc(O)cc(-c3ncc4c(N5CCC[C@@](C)(O)C5)nc(OCC5(CN6CCC(CN7CCN(c8ccc(C9CCC(=O)NC9=O)cc8)CC7)CC6)CC5)nc4c3F)c12 (stereo partly drawn) [Compound 14, 3-(4-(4-((1-((1-(((7-(8-ethyl-7-fluoro-3-hydroxynaphthalen-1-yl)-8-fluoro-4-((R)-3-hydroxy-3-methylpiperidin-1-yl)pyrido[4,3-d]pyrimidin-2-yl)oxy)methyl)cyclopropyl)methyl)piperidin-4-yl)methyl)piperazin-1-yl)phenyl)piperidine-2,6-dione] | > 7.70 | > 100 | 10 to 100 | 
CCc1c(F)ccc2cc(O)cc(-c3ncc4c(N5CCC[C@@](C)(O)C5)nc(OCC5(CN6CCC(C#N)(CN7CCN(c8ccc9c(c8)CN([C@H]8CCC(=O)NC8=O)C9=O)CC7)CC6)CC5)nc4c3F)c12 [Compound 20, 4-((4-(2-((S)-2,6-dioxopiperidin-3-yl)-1-oxoisoindolin-5-yl)piperazin-1-yl)methyl)-1-((1-(((7-(8-ethyl-7-fluoro-3-hydroxynaphthalen-1-yl)-8-fluoro-4-((R)-3-hydroxy-3-methylpiperidin-1-yl)pyrido[4,3-d]pyrimidin-2-yl)oxy)methyl)cyclopropyl)methyl)piperidine-4-carbonitrile] | < 6.70 | > 100 | < 10 | 
CCc1c(F)ccc2cc(O)cc(-c3ncc4c(N5CCC[C@@](C)(O)C5)nc(OCC5(CN6CC7(CCC(N8CCN(c9ccc%10c(c9)CN([C@H]9CCC(=O)NC9=O)C%10=O)CC8)CC7)C6)CC5)nc4c3F)c12 [Compound 136, (S)-3-(5-(4-(2-((1-(((7-(8-ethyl-7-fluoro-3-hydroxynaphthalen-1-yl)-8-fluoro-4-((R)-3-hydroxy-3-methylpiperidin-1-yl)pyrido[4,3-d]pyrimidin-2-yl)oxy)methyl)cyclopropyl)methyl)-2-azaspiro[3.5]nonan-7-yl)piperazin-1-yl)-1-oxoisoindolin-2-yl)piperidine-2,6-dione] | > 7.70 | < 1 | 10 to 100 | 
CCc1c(F)ccc2cc(O)cc(-c3ncc4c(N5CCC[C@@](C)(O)C5)nc(OCC5(CN6CCC(N7CCC8(CC7)CN(c7ccc9c(c7)CN(C7CCC(=O)NC7=O)C9=O)C8)CC6)CC5)nc4c3F)c12 (stereo partly drawn) [Compound 151, 3-(5-(7-(1-((1-(((7-(8-ethyl-7-fluoro-3-hydroxynaphthalen-1-yl)-8-fluoro-4-((R)-3-hydroxy-3-methylpiperidin-1-yl)pyrido[4,3-d]pyrimidin-2-yl)oxy)methyl)cyclopropyl)methyl)piperidin-4-yl)-2,7-diazaspiro[3.5]nonan-2-yl)-1-oxoisoindolin-2-yl)piperidine-2,6-dione] | 6.70 to 7.70 | < 1 | < 10 | 
CCc1cccc2cc(O)cc(-c3ncc4c(N5CCC[C@@](C)(O)C5)nc(OCC5(CN6CCC7(CC6)CC(CN6CCN(c8ccc9c(c8)CN([C@H]8CCC(=O)NC8=O)C9=O)CC6)C7)CC5)nc4c3F)c12 [Compound 87, (S)-3-(5-(4-((7-((1-(((7-(8-ethyl-3-hydroxynaphthalen-1-yl)-8-fluoro-4-((R)-3-hydroxy-3-methylpiperidin-1-yl)pyrido[4,3-d]pyrimidin-2-yl)oxy)methyl)cyclopropyl)methyl)-7-azaspiro[3.5]nonan-2-yl)methyl)piperazin-1-yl)-1-oxoisoindolin-2-yl)piperidine-2,6-dione] | 6.70 to 7.70 | 1 to 10 |  | < 10
CCc1c(F)ccc2cc(N)cc(-c3ncc4c(N5CCC[C@@](C)(O)C5)nc(OCC5(CN6CCC(CN7CCN(c8ccc9c(c8)CN([C@H]8CCC(=O)NC8=O)C9=O)CC7)CC6)CC5)nc4c3F)c12 [Compound 89, (S)-3-(5-(4-((1-((1-(((7-(3-amino-8-ethyl-7-fluoronaphthalen-1-yl)-8-fluoro-4-((R)-3-hydroxy-3-methylpiperidin-1-yl)pyrido[4,3-d]pyrimidin-2-yl)oxy)methyl)cyclopropyl)methyl)piperidin-4-yl)methyl)piperazin-1-yl)-1-oxoisoindolin-2-yl)piperidine-2,6-dione] | < 6.70 | > 100 | > 100 | 
